Earlier results on six compounds are cited in patent US8859560B2, “Treating attention deficit hyperactivity disorder with NHE inhibitors” (The Research Foundation of State University of New York, priority 2012, dated 2014).

Data set [1] has as its system sodium/hydrogen exchanger (NHE) subtypes. Conditions: for NHE subtype selectivity of inhibition: prior knowledge from Masereel et al. 2003.
The conditions of data set [2]: pediatric patients, extended-release tablets (Jain et al. 2011).

On to `CC(C)c1ccc(C(=O)NC(=N)N)cc1S(C)(=O)=O` [cariporide], for which the “NHE subtype selectivity of inhibition” value in data set [1] is “selectively inhibits NHE1”. On to `CC(=Cc1cc(C)ccc1C=C(C)C(=O)NC(=N)N)C(=O)N=C(C)C` [S3226], for which the “NHE subtype selectivity of inhibition” value in data set [1] is reported as “selectively inhibits NHE3”.

For `N=C(N)NC(=O)c1nc(Cl)c(N)nc1N` [amiloride], the “NHE subtype selectivity of inhibition” value in data set [1] is recorded as “limited NHE subtype selectivity”. As to `C=C[C@H]1C[N@@]2CC[C@H]1C[C@H]2[C@H](O)c1ccnc2ccc(OC)cc12` [quinine], the “NHE subtype selectivity of inhibition” value in data set [1] is reported as “selectively inhibits NHE7”.

In the case of `Clc1cccc(Cl)c1N=C1NCCN1` [clonidine], the “Inhibition of plasma membrane NHEs” value in data set [1] (plasma membrane NHEs (NHE1-NHE5)) was “modest inhibitor”. In addition, in data set [2], the “Efficacy as drug for ADHD” value is reported as “moderately efficacious”. As for `COc1ccc2c3c([nH]c2c1)C(C)=NCC3` [harmaline], the “NHE subtype selectivity of inhibition” value in data set [1] is “selectively inhibits NHE5”.
